Columns and labels:
[1] = target: T1, human calcitonin receptor (CTR) (Homo sapiens, UniProt P30988); assay: Calcitonin Receptor (CTR) cAMP Assay; assay type: cell-based; details: COS7-human CTR Clone #2 stable cell line, cAMP dynamic 2 kit, 30 min; read-out: Calcitonin Receptor cAMP Stimulation Activity: EC50
T1 construct: expressed in transfected cells; host or cells: COS-7 (COS7-human CTR Clone #2)
T1 sequence (P30988 25-474): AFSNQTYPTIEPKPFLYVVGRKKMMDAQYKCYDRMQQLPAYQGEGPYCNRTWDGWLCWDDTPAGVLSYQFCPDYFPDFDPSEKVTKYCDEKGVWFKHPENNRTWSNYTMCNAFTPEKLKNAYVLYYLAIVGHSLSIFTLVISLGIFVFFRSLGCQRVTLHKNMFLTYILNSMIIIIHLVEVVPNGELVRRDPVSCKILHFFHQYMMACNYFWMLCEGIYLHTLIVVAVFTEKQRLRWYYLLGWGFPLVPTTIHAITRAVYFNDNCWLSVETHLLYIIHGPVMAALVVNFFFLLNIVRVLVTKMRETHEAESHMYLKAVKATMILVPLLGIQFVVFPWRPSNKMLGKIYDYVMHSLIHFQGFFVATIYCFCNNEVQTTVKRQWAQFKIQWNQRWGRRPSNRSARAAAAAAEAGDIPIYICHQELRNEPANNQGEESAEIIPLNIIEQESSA
Experimental: (§1) After incubation, the cAMP assay signal was generated using cAMP dynamic 2 kit (Revvity, Cat #62AM4PEC). 10 μL cAMP-d2 working solution was added to each well, followed by 10 μL Anti-cAMP antibody-cryptate working solution which was added to each well using CERTUS FLEX LIQUID […]. The samples were then incubated at room temperature for 1 hour protected from light. the fluorescence was read at 665 and 615 nm with Reader PerkinElmer EnVision 2105. % Activity=100−(mean RLU of test sample−mean RLU of positive control)/(mean RLU of vehicle control−mean RLU of positive control)×100 Calcitonin Receptor (CTR) cAMP Assay
The calcitonin receptor (CTR) belongs to the subfamily of GPCRs known as the secretin or ‘B’ family of GPCRs. Like other class B1 GPCRs, the CT receptor family is canonically coupled to Gs-mediated cAMP production, and measurement of cAMP accumulation has been the primary assay used to determine peptide selectivity and potency.
(§2) To optimize functional activity directed toward Gαs coupling, COS-7 cells were stably transfected with human calcitonin receptor (CTR) to create COS7-human CTR Clone #2 stable cell line. 100×concentration of compound working solutions were prepared with 4-fold serial dilution in 384-well Echo LDV plate (Labcyte, Cat #LP-0200-BC). 200 nL/well 100×concentration of compound working solutions were moved to 384-well white microplate (Perkin Elmer, Cat #6007680) using Labcyte ECHO550. 1×10^5 cells/mL COS7-human CTR Clone #2 cell suspensions prepared with assay buffer [HBSS containing 20 mM HEPES (Gibco, Cat #15630-080), 0.5 mM IBMX (Sigma, Cat #15879) and 0.1% Casein (Sigma, Cat #C4765)], 20 μL cell suspensions were added to each well of previous generated assay plate which already contains 200 nL compound at 100×concentration using ThermoFisher Multidrop Combi (2000 cells/well). Seal the plate and incubate at 37° C. with 5% CO2 for 30 min.
as §1, with “control)×100” for “control)×100 Calcitonin Receptor (CTR) cAMP Assay”

[2] = target: T2, COS-7/AMY3 (human calcitonin receptor (CTR) and RAMP3) (Homo sapiens, UniProt O60896+P30988); assay: Amylin Receptor cAMP Assay II; assay type: cell-based; details: values marked **: Amylin Receptor cAMP Assay II; COS-7/AMY3 cells, cAMP dynamic 2 kit, 30 min; read-out: Amylin Receptor cAMP Stimulation Activity: EC50
T2 construct: expressed in transfected cells; host or cells: COS-7
T2 sequence (O60896 24-148, one chain of several): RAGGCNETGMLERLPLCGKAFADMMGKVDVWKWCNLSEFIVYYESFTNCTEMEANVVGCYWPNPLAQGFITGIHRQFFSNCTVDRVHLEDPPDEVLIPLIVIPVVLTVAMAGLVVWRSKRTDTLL
Excerpt: AMYRs are heterodimers of the class B calcitonin (CT) G-protein-coupled receptor (CTR) and receptor activity-modifying proteins (RAMPs). All three RAMPs can interact with the CTR and form AMY1, AMY2, AMY3 with RAMP1, RAMP2 and RAMP3, respectively. Like other class B1 GPCRs, the CT receptor family is canonically coupled to Gs-mediated cAMP production, and measurement of cAMP accumulation has been the primary assay used to determine peptide selectivity and potency.
as §2, with “and RAMP3, simultaneously.” for “to create COS7-human CTR Clone #2 stable cell line.”, “COS-7/AMY3” for “COS7-human CTR Clone #2”
as §1

| SMILES | EC50 [1] [nM] | EC50 [2] [nM] |
| --- | --- | --- |
| O=C(NCc1ccc(F)c(F)c1)c1ccc(-c2c3c(nc(CCc4ccc(F)cc4)c2-c2noc(=O)[nH]2)[C@@H]2CCCN2C3=O)s1 [Compound 101] | 12.9 | 101 |
| COc1cccc2c1CC[C@H]2Nc1nccc2cc(-c3c4c(nc(CCc5ccc(F)cc5)c3-c3n[nH]c(=O)o3)[C@@H]3CCCN3C4=O)sc12 [Compound 102, 5-((S)-2-(4-fluorophenethyl)-4-(7-(((R)-4-methoxy-2,3-dihydro-1H-inden-1-yl)amino)thieno[2,3-c]pyridin-2-yl)-5-oxo-7,8,9,9a-tetrahydro-5H-pyrido[2,3-a]pyrrolizin-3-yl)-1,3,4-oxadiazol-2(3H)-one] | 0.8 | 12.2 |
| O=C(NCc1ccc(F)c(F)c1)c1ccc(-c2c3c(nc(CCc4ccc(F)cc4)c2-c2cc(=O)[nH]o2)[C@@H]2CCCN2C3=O)s1 [Compound 103, (S)—N-(3,4-difluorobenzyl)-5-(2-(4-fluorophenethyl)-5-oxo-3-(3-oxo-2,3-dihydroisoxazol-5-yl)-7,8,9,9a-tetrahydro-5H-pyrido[2,3-a]pyrrolizin-4-yl)thiophene-2-carboxamide] | 21.5 | 273 |
| COc1cccc2c1CC[C@H]2Nc1nccc2cc(-c3c4c(nc(CCc5ccc(F)cc5)c3-c3noc(=O)[nH]3)[C@@H]3CCCN3C4=O)sc12 [Compound 104] | 0.926 | 25.5 |
| CN(Cc1ccc(F)c(F)c1)c1nccc2cc(-c3c4c(nc(CCc5ccc(F)cc5)c3-c3noc(=O)[nH]3)[C@@H]3CCCN3C4=O)sc12 [Compound 107, (S)-3-(4-(7-((3,4-difluorobenzyl)(methyl)amino)thieno[2,3-c]pyridin-2-yl)-2-(4-fluorophenethyl)-5-oxo-7,8,9,9a-tetrahydro-5H-pyrido[2,3-a]pyrrolizin-3-yl)-1,2,4-oxadiazol-5(4H)-one] | 9.03 | 34.4 |
| O=C1c2c(nc(CCc3ccc(F)cc3)c(-c3noc(=O)[nH]3)c2-c2ccc3c(NCc4ccc(F)c(F)c4)nccc3c2)[C@@H]2CCCN12 [Compound 111] | 205 | 401 |
| O=C1c2c(nc(CCc3ccc(F)cc3)c(-c3noc(=O)[nH]3)c2-c2ccc3c(c2)CC[C@H]3OCc2ccc(F)c(F)c2)[C@@H]2CCCN12 [Compound 113] | 271 | 1120 |
| O=C1c2c(nc(CCc3ccc(F)cc3)c(-c3noc(=O)[nH]3)c2-c2ccc3c(c2)CCCN3CCc2ccc(F)c(F)c2)[C@@H]2CCCN12 [Compound 114] | 396 | 425 |
| CN(Cc1ccc(F)c(F)c1)C(=O)c1ccc(-c2c3c(nc(CCc4ccc(F)cc4)c2-c2noc(=O)[nH]2)[C@@H]2CCCN2C3=O)s1 [Compound 115] | 28.8 | 566 |
| O=C(c1ccc(-c2c3c(nc(CCc4ccc(F)cc4)c2-c2noc(=O)[nH]2)[C@@H]2CCCN2C3=O)s1)N1CCCC1c1ccc(F)c(F)c1 (stereo partly shown) [Compound 116] | 25.6 | 253 |
| O=C1c2c(nc(CCc3ccc(F)cc3)c(-c3noc(=O)[nH]3)c2-c2cc3ccnc(N4CCCC4c4ccc(F)c(F)c4)c3s2)[C@@H]2CCCN12 (stereo partly shown) [Compound 117] | 53.5 | 113 |
| O=C(N[C@@H]1CCc2cc(F)c(F)cc21)c1ccc(-c2c3c(nc(CCc4ccc(F)cc4)c2-c2noc(=O)[nH]2)[C@@H]2CCCN2C3=O)s1 [Compound 120] | 1.24 | 23.6 |
| COc1cccc2c1CC[C@H]2Nc1nccc2cc(-c3c4c(nc(CCc5ccc(C(F)(F)F)cc5)c3-c3noc(=O)[nH]3)[C@@H]3CCCN3C4=O)sc12 [Compound 123] | 1.19 | 42.9 |
| COc1cccc2c1CC[C@H]2Nc1nccc2cc(-c3c4c(nc(CCc5cccc(C(F)(F)F)c5)c3-c3noc(=O)[nH]3)[C@@H]3CCCN3C4=O)sc12 [Compound 124, 3-((S)-4-(7-(((R)-4-methoxy-2,3-dihydro-1H-inden-1-yl)amino)thieno[2,3-c]pyridin-2-yl)-5-oxo-2-(3-(trifluoromethyl)phenethyl)-7,8,9,9a-tetrahydro-5H-pyrido[2,3-a]pyrrolizin-3-yl)-1,2,4-oxadiazol-5(4H)-one] | 0.628 | 18.2 |
| COc1cccc2c1CC[C@H]2Nc1nccc2cc(-c3c4c(nc(CCc5ccccc5C(F)(F)F)c3-c3noc(=O)[nH]3)[C@@H]3CCCN3C4=O)sc12 [Compound 125, 3-((S)-4-(7-(((R)-4-methoxy-2,3-dihydro-1H-inden-1-yl)amino)thieno[2,3-c]pyridin-2-yl)-5-oxo-2-(2-(trifluoromethyl)phenethyl)-7,8,9,9a-tetrahydro-5H-pyrido[2,3-a]pyrrolizin-3-yl)-1,2,4-oxadiazol-5(4H)-one] | 0.711 | 50.5 |
| COc1cccc2c1CC[C@H]2Nc1nccc2cc(-c3c4c(nc(CCc5ccc(C6CC6)cc5)c3-c3noc(=O)[nH]3)[C@@H]3CCCN3C4=O)sc12 [Compound 127, 3-((S)-2-(4-cyclopropylphenethyl)-4-(7-(((R)-4-methoxy-2,3-dihydro-1H-inden-1-yl)amino)thieno[2,3-c]pyridin-2-yl)-5-oxo-7,8,9,9a-tetrahydro-5H-pyrido[2,3-a]pyrrolizin-3-yl)-1,2,4-oxadiazol-5(4H)-one] | 4.36 | 143 |
| COc1cccc2c1CC[C@H]2Nc1nccc2cc(-c3c4c(nc(CC5CCc6cc(F)ccc65)c3-c3noc(=O)[nH]3)[C@@H]3CCCN3C4=O)sc12 (stereo partly shown) [Compound 128] | 1.13 | 21.9 |
| O=C1c2c(nc(CCc3ccc(F)cc3)c(-c3noc(=O)[nH]3)c2-c2cc3ccnc(NCc4ccc(F)c(F)c4)c3s2)[C@@H]2CCCN12 [Compound 130] | 3.06 | 38.3 |
| O=C1c2c(nc(CCc3ccc(F)cc3)c(-c3noc(=O)[nH]3)c2-c2cc3ccnc(OCc4ccc(F)c(F)c4)c3s2)[C@@H]2CCCN12 [Compound 133, (S)-3-(4-(7-((3,4-difluorobenzyl)oxy)thieno[2,3-c]pyridin-2-yl)-2-(4-fluorophenethyl)-5-oxo-7,8,9,9a-tetrahydro-5H-pyrido[2,3-a]pyrrolizin-3-yl)-1,2,4-oxadiazol-5(4H)-one] | 4.42 | 90.7 |
| O=C1c2c(nc(CCc3ccc(F)cc3)c(-c3noc(=O)[nH]3)c2-c2cc3ccnc(N[C@@H]4CCCc5ccccc54)c3s2)[C@@H]2CCCN12 [Compound 139] | 2.7 | 41.5 |
